Assay: xn = mol fraction of the nth substance listed
Details: 101 kPa

Cc1ccccc1 + CCCCCCCC[n+]1ccc2ccccc2c1.O=S(=O)([N-]S(=O)(=O)C(F)(F)F)C(F)(F)F
x1 = 1
Details | viscosity [mPa·s]
298.15 K | 0.56
318.15 K | 0.45
328.15 K | 0.4
338.15 K | 0.37
348.15 K | 0.33

c1ccccc1 + CCCCCCCC[n+]1ccc2ccccc2c1.O=S(=O)([N-]S(=O)(=O)C(F)(F)F)C(F)(F)F
x1 = 1
Details | viscosity [mPa·s]
298.15 K | 0.6
318.15 K | 0.47
338.15 K | 0.37
348.15 K | 0.34

c1ccncc1 + CCCCCCCC[n+]1ccc2ccccc2c1.O=S(=O)([N-]S(=O)(=O)C(F)(F)F)C(F)(F)F
x1 = 1
Details | viscosity [mPa·s]
218.15 K | 0.67
298.15 K | 0.89
308.15 K | 0.76
328.15 K | 0.59
348.15 K | 0.52

c1ccsc1 + CCCCCCCC[n+]1ccc2ccccc2c1.O=S(=O)([N-]S(=O)(=O)C(F)(F)F)C(F)(F)F
x1 = 1
Details | viscosity [mPa·s]
298.15 K | 0.62
308.15 K | 0.54
318.15 K | 0.48
328.15 K | 0.42
338.15 K | 0.38

CCCCCCCC[n+]1ccc2ccccc2c1.O=S(=O)([N-]S(=O)(=O)C(F)(F)F)C(F)(F)F + Cc1ccccc1
viscosity [mPa·s]
Details | 298.15 K | 308.15 K | 318.15 K | 328.15 K | 338.15 K | 348.15 K
x2 = 0 | 369 | 191 | 108.7 | 67.9 | – | 31.62
x2 = 0.0818 | – | – | 94.1 | 58.9 | 39.34 | 27.64
x2 = 0.1949 | 200 | 111.3 | – | 43.52 | 29.87 | 21.41
x2 = 0.2746 | 143.3 | – | 50.3 | 33.2 | 23.14 | 16.87
x2 = 0.3638 | 96.8 | 58.2 | 37.73 | – | 18.51 | 13.76
x2 = 0.4295 | 67.4 | – | 27.64 | – | 14.19 | 10.81
x2 = 0.4775 | – | – | 22.12 | 15.77 | – | 9
x2 = 0.4902 | – | 31.17 | 21.24 | 15.26 | 11.43 | 8.83
x2 = 0.5467 | 35.44 | 23.45 | 16.48 | – | 9.23 | 7.21
x2 = 0.6148 | 22.18 | 15.4 | – | 8.46 | 6.59 | 5.28
x2 = 0.7004 | 12.67 | 9.25 | 7.03 | – | 4.44 | 3.65
x2 = 0.7634 | 7.73 | 5.89 | 4.64 | 3.76 | 3.11 | 2.62
x2 = 0.8672 | 3.2 | 2.62 | – | 1.88 | 1.65 | 1.48

CCCCCCCC[n+]1ccc2ccccc2c1.O=S(=O)([N-]S(=O)(=O)C(F)(F)F)C(F)(F)F + c1ccccc1
viscosity [mPa·s]
Details | 298.15 K | 308.15 K | 318.15 K | 328.15 K | 338.15 K | 348.15 K
x2 = 0 | – | 191 | – | 67.9 | 44.8 | 31.62
x2 = 0.0912 | 301 | 158.8 | 92 | 57.6 | 38.53 | 27.1
x2 = 0.1505 | 249 | 134.2 | 79.2 | – | 34.07 | 24.21
x2 = 0.295 | 150.9 | 85.5 | 52.8 | 34.86 | 24.3 | 17.61
x2 = 0.332 | 133.1 | 76.4 | – | – | 22.32 | –
x2 = 0.4679 | – | – | 26.93 | 18.76 | 13.7 | 10.41
x2 = 0.5663 | 37.49 | 24.56 | – | 12.25 | 9.21 | 7.15
x2 = 0.654 | 21.25 | 14.55 | 10.5 | 7.91 | 6.15 | –
x2 = 0.673 | – | 7.96 | 6.05 | – | – | 3.15
x2 = 0.7443 | – | 4.55 | 3.6 | 2.94 | 2.46 | 2.11
x2 = 0.8143 | 2.78 | 2.28 | 1.92 | 1.66 | – | 1.34
x2 = 0.8961 | 0.96 | 0.83 | 0.74 | 0.65 | 0.59 | –

CCCCCCCC[n+]1ccc2ccccc2c1.O=S(=O)([N-]S(=O)(=O)C(F)(F)F)C(F)(F)F + c1ccncc1
viscosity [mPa·s]
Details | 298.15 K | 308.15 K | 328.15 K | 338.15 K | 348.15 K
x2 = 0 | 369 | 191 | – | 44.8 | 31.62
x2 = 0.0945 | 292 | – | 57 | – | –
x2 = 0.1869 | 205 | 113.6 | 44.5 | 30.56 | 21.19
x2 = 0.2762 | 141.5 | 81.4 | 34.07 | 23.96 | 17.53
x2 = 0.3675 | 89.1 | 53.9 | 24.08 | 17.44 | 13.12
x2 = 0.4584 | 56.5 | 35.87 | 17.33 | 12.94 | 10.01
x2 = 0.5383 | 42.09 | 27.64 | 14.12 | – | 8.48
x2 = 0.637 | 19.55 | 13.92 | 8.02 | 6.34 | 5.11
x2 = 0.7274 | 10.36 | 7.76 | – | 3.95 | 3.3
x2 = 0.8199 | 6.68 | – | 3.64 | – | 2.67
x2 = 0.9064 | 3.11 | 2.6 | 1.92 | 1.68 | 1.49

CCCCCCCC[n+]1ccc2ccccc2c1.O=S(=O)([N-]S(=O)(=O)C(F)(F)F)C(F)(F)F + c1ccsc1
viscosity [mPa·s]
Details | 298.15 K | 308.15 K | 318.15 K | 328.15 K | 338.15 K | 348.15 K
x2 = 0 | 369 | 191 | – | 67.9 | 44.8 | 31.62
x2 = 0.0964 | 300 | – | – | 57.9 | 38.71 | 27.2
x2 = 0.1907 | 215 | 118 | 70.9 | 45.7 | 33.3 | 22.4
x2 = 0.2739 | 155.2 | 88.3 | – | 36.23 | 25.31 | 18.35
x2 = 0.3572 | 112.1 | 66.1 | 42.17 | 28.66 | – | 15.04
x2 = 0.4456 | 72.5 | 44.61 | 29.44 | 20.52 | 14.97 | –
x2 = 0.542 | – | – | 19.21 | 13.96 | 10.53 | 8.22
x2 = 0.6385 | 23.26 | – | 11.79 | 8.96 | 6.98 | 5.57
x2 = 0.7244 | 12.82 | 9.45 | 7.2 | 5.63 | 4.53 | 3.73
x2 = 0.821 | – | – | 4.88 | 4.03 | 3.4 | 2.91
x2 = 0.8627 | 5.27 | 4.26 | 3.53 | 2.98 | 2.55 | 2.22
x2 = 0.9065 | 3.34 | – | – | 2.04 | 1.78 | 1.57
x2 = 0.935 | 2.38 | 2.01 | 1.73 | 1.51 | 1.34 | 1.25

Source: a compilation of properties of binary mixtures (doi:10.1524/zpch.2013.0326)
